Results reported in US20090163586A1, “Bis-(Sulfonylamino) Derivatives in Therapy 205” (AstraZeneca AB, priority 2007, published 2009).

Target: T1, human mPGES-1 (Homo sapiens, UniProt O14684)
T1 sequence (O14684 1-152): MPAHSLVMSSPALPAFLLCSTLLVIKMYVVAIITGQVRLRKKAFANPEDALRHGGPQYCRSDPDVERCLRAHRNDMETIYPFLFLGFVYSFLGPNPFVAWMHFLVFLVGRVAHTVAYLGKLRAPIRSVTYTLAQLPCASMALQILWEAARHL
Assay: Microsomal prostaglandin E synthase biochemical assay
Conditions: microsome preparation containing human mPGES-1; PGH2 10.8 μM, GSH 2.5 mM, pH 6.8; PGE2 by HTRF; average of at least n=2
Summary of the method: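 Human mPGES-1 microsomes at 2 μg/mL were pre-incubated 15 min with compound (60 μM to 0.002 μM) in 50 mM potassium phosphate pH 6.8 with 2.5 mM GSH. The reaction was started with 10.8 μM PGH2 and stopped after 1 minute with acidic ferric chloride/citrate. PGE2 was quantified by HTRF; IC50 is the mean of at least 2 runs.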

Row | SMILES | IC50
1 | N#Cc1ccc(-c2cccc(S(=O)(=O)Nc3ccccc3S(N)(=O)=O)c2)cc1 [Example 117, 2-[[3-(4-Cyanophenyl)phenyl]sulfonylamino]benzenesulfonamide] | 1300 nM
2 | CC(C)(C)C#Cc1ccc(CCS(=O)(=O)Nc2ccsc2S(N)(=O)=O)cc1 [Example 214, 3-{2-[4-(3,3-Dimethyl-but-1-ynyl)-phenyl]-ethanesulfonylamino}-thiophene-2-sulfonic acid amide] | 1400 nM
3 | Cn1c(-c2cccc(S(=O)(=O)Nc3ccccc3S(N)(=O)=O)c2)cc2ccccc21 [Example 140, 3-(1-Methylindol-2-yl)-N-(2-sulfamoylphenyl)benzenesulfonamide] | 2900 nM
4 | NS(=O)(=O)c1c(F)cccc1NS(=O)(=O)/C=C/c1cccc(C(F)(F)F)c1 [Example 66, 2-Fluoro-6-[[(E)-2-[3-(trifluoromethyl)phenyl]ethenyl]sulfonylamino]-benzenesulfonamide] | 6200 nM
5 | NS(=O)(=O)c1ccc(F)cc1NS(=O)(=O)/C=C/c1ccccc1C(F)(F)F [Example 93, 4-Fluoro-2-[[(E)-2-[2-(trifluoromethyl)phenyl]ethenyl]sulfonylamino]-benzenesulfonamide] | 650 nM
6 | NS(=O)(=O)c1ccccc1NS(=O)(=O)c1cccc(-c2cccc(Cl)c2Cl)c1 [Example 113, 2-[[3-(2,3-Dichlorophenyl)phenyl]sulfonylamino]benzenesulfonamide] | 480 nM
7 | COc1ncccc1-c1cccc(S(=O)(=O)Nc2ccccc2S(N)(=O)=O)c1 [Example 167, 3-(2-Methoxypyridin-3-yl)-N-(2-sulfamoylphenyl)benzenesulfonamide] | 3800 nM
8 | NS(=O)(=O)c1ccccc1NS(=O)(=O)/C=C/c1ccc(C(F)(F)F)cc1 [Example 105, 2-[[(E)-2-[4-(Trifluoromethyl)phenyl]ethenyl]sulfonylamino]benzenesulfonamide] | 670 nM
9 | COc1ccccc1CCS(=O)(=O)Nc1cc(Cl)ccc1S(N)(=O)=O [Example 227, 4-Chloro-2-(2-(2-methoxyphenyl)ethylsulfonamido)benzenesulfonamide] | 1900 nM
10 | NS(=O)(=O)c1ccccc1NS(=O)(=O)c1ccc2c(c1)CCCC2 [Example 126] | 1200 nM
11 | NS(=O)(=O)c1cc(F)ccc1NS(=O)(=O)/C=C/c1ccc(Cl)c(Cl)c1 [Example 24, 2-[[(E)-2-(3,4-Dichlorophenyl)ethenyl]sulfonylamino]-5-fluoro-benzenesulfonamide] | 300 nM
12 | Cc1ccc(NS(=O)(=O)c2cccc(-c3cccc(OC(F)(F)F)c3)c2)c(S(N)(=O)=O)c1 [Example 152, 5-Methyl-2-[[3-[3-(trifluoromethoxy)phenyl]phenyl]sulfonylamino]-benzenesulfonamide] | 3900 nM
13 | Cc1ccc(NS(=O)(=O)c2cccc(-c3ccc(Cl)c(Cl)c3)c2)c(S(N)(=O)=O)c1 [Example 150, 2-[[3-(3,4-Dichlorophenyl)phenyl]sulfonylamino]-5-methyl-benzenesulfonamide] | 4200 nM
14 | COc1cc(Cl)ccc1CCS(=O)(=O)Nc1ccccc1S(N)(=O)=O [Example 186, 2-(2-(4-Chloro-2-methoxyphenyl)ethylsulfonamido)benzenesulfonamide] | 250 nM
15 | Cc1ccc(NS(=O)(=O)CCc2ccc(Cl)cc2)c(S(N)(=O)=O)c1 [Example 45, 2-[2-(4-Chloro-phenyl)-ethanesulfonylamino]-5-methylbenzenesulfonamide] | 1300 nM
16 | NS(=O)(=O)c1ccc(F)cc1NS(=O)(=O)/C=C/c1ccc(OC(F)F)cc1 [Example 41, 2-[[(E)-2-[4-(Difluoromethoxy)phenyl]ethenyl]sulfonylamino]-4-fluoro-benzenesulfonamide] | 1100 nM
17 | NC(=O)c1ccc(NS(=O)(=O)c2cccc(-c3ccc(Cl)c(Cl)c3)c2)c(S(N)(=O)=O)c1 [Example 151, 4-[[3-(3,4-Dichlorophenyl)phenyl]sulfonylamino]-3-sulfamoyl-benzamide] | 3700 nM
